Activity calls are given as the source filed them. No cut-off for these calls is given here.
Columns and labels:
Nucleic Acid [1] = assay: Induction of G-quadruplex stabilization in G4C oligonucleotide in pH 7.4 10 mM Tris-HCl, 1 mM EDTA buffer by CD spectroscopy; assay type: nucleic-acid assay
Nucleic Acid [2] = assay: Induction of G-quadruplex stabilization in G4C oligonucleotide assessed as change in DNA melting temperature at [compound/G4C ratio = 1] in pH 7.4 10 mM Tris-HCl, 1 mM EDTA buffer by CD spectroscopy; assay type: nucleic-acid assay
Nucleic Acid [3] = assay: Induction of G-quadruplex stabilization in G4C oligonucleotide assessed as change in DNA melting temperature at [compound/G4C ratio = 2] in pH 7.4 10 mM Tris-HCl, 1 mM EDTA buffer by CD spectroscopy; assay type: nucleic-acid assay
Nucleic Acid [4] = assay: Induction of G-quadruplex stabilization in G4C oligonucleotide assessed as change in DNA melting temperature at [compound/G4C ratio = 3] in pH 7.4 10 mM Tris-HCl, 1 mM EDTA buffer by CD spectroscopy; assay type: nucleic-acid assay
Nucleic Acid [5] = assay: Induction of G-quadruplex stabilization in G4C oligonucleotide assessed as change in DNA melting temperature at [compound/G4C ratio = 4] in pH 7.4 10 mM Tris-HCl, 1 mM EDTA buffer by CD spectroscopy; assay type: nucleic-acid assay
Nucleic Acid [6] = assay: Induction of G-quadruplex stabilization in G4C oligonucleotide assessed as change in DNA melting temperature at [compound/G4C ratio = 5] in pH 7.4 10 mM Tris-HCl, 1 mM EDTA buffer by CD spectroscopy; assay type: nucleic-acid assay
Nucleic Acid [7] = assay: Binding affinity to human bcl2 promoter G-quadruplex sequence by surface plasmon resonance spectroscopy; assay type: nucleic-acid assay
Nucleic Acid [8] = assay: Binding affinity to human c-myc promoter G-quadruplex sequence by surface plasmon resonance spectroscopy; assay type: nucleic-acid assay
Nucleic Acid [9] = assay: Binding affinity to human telomeric G-quadruplex sequence by surface plasmon resonance spectroscopy; assay type: nucleic-acid assay
Nucleic Acid [10] = assay: Binding affinity to dsDNA by surface plasmon resonance spectroscopy; assay type: nucleic-acid assay
Nucleic Acid [11] = assay: Selectivity for human bcl2 promoter G-quadruplex sequence over double stranded DNA by surface plasmon resonance spectroscopy; assay type: nucleic-acid assay
Nucleic Acid [12] = assay: Selectivity for human c-myc promoter G-quadruplex sequence over double stranded DNA by surface plasmon resonance spectroscopy; assay type: nucleic-acid assay
Nucleic Acid [13] = assay: Selectivity for human telomeric G-quadruplex sequence over double stranded DNA by surface plasmon resonance spectroscopy; assay type: nucleic-acid assay
Nucleic Acid [14] = assay: Induction of structural transition from antiparallel to the mixed-type hybrid G-quadruplex structure in human telomeric sequence (T2AG3)4 by CD spectroscopy; assay type: nucleic-acid assay
Nucleic Acid [15] = assay: Binding affinity to F21T G-quadruplex DNA at 2.5 uM in presence of competitor dsDNA by competitive FRET melting assay; assay type: nucleic-acid assay
Nucleic Acid [16] = assay: Induction of G-quadruplex stabilization in HT4 oligonucleotide assessed as inhibition of DNA synthesis by Taq DNA polymerase stop assay

| Activity (Nucleic Acid [1]) | ΔTm (Nucleic Acid [2]) [°C] | ΔTm (Nucleic Acid [3]) [°C] | ΔTm (Nucleic Acid [4]) [°C] | ΔTm (Nucleic Acid [5]) [°C] | ΔTm (Nucleic Acid [6]) [°C] | KA (Nucleic Acid [7]) [×10⁷ /M] | KA (Nucleic Acid [8]) | KA (Nucleic Acid [9]) | KA (Nucleic Acid [10]) | Selectivity ratio (Nucleic Acid [11]) | Selectivity ratio (Nucleic Acid [12]) | Selectivity ratio (Nucleic Acid [13]) | Activity (Nucleic Acid [14]) | Activity (Nucleic Acid [15]) | Activity (Nucleic Acid [16]) | SMILES |
| --- | --- | --- | --- | --- | --- | --- | --- | --- | --- | --- | --- | --- | --- | --- | --- | --- |
| Active | 2.2 | 3.3 | 5 | 6.5 | 7.6 | 1.74 | 5.82 ×10⁷ /M | 2.37 ×10⁷ /M | 6.85 ×10⁵ /M | 25 | 85 | 34 |  |  |  | C1=Cc2nc1c(-c1ccc(C[n+]3ccccc3)cc1)c1nc(c(-c3ccc(C[n+]4ccccc4)cc3)c3ccc([nH]3)c(-c3ccc(C[n+]4ccccc4)cc3)c3ccc([nH]3)c2-c2ccc(C[n+]3ccccc3)cc2)C=C1 |
|  | 3.8 | 6.6 | 8.3 | 9.2 | 9.3 | 1.42 | 7.54 ×10⁶ /M | 5.32 ×10⁶ /M | 1.32 ×10⁵ /M | 108 | 57 | 40 | Active | Active | Dose-dependent effect | C1=C/C2=C(\c3ccc(C[n+]4ccccc4)cc3)c3c[nH]c(c3)/C(c3ccc(C[n+]4ccccc4)cc3)=C3/C=CC(=N3)/C(c3ccc(C[n+]4ccccc4)cc3)=c3/cc/c([nH]3)=C(\c3ccc(C[n+]4ccccc4)cc3)C1=N2 |

| SMILES | Activity (Nucleic Acid [1]) | ΔTm (Nucleic Acid [2]) [°C] | ΔTm (Nucleic Acid [3]) [°C] | ΔTm (Nucleic Acid [4]) [°C] | ΔTm (Nucleic Acid [5]) [°C] | ΔTm (Nucleic Acid [6]) [°C] | KA (Nucleic Acid [7]) [×10⁷ /M] | KA (Nucleic Acid [8]) | KA (Nucleic Acid [9]) | KA (Nucleic Acid [10]) | Selectivity ratio (Nucleic Acid [11]) | Selectivity ratio (Nucleic Acid [12]) | Selectivity ratio (Nucleic Acid [13]) | Activity (Nucleic Acid [14]) | Activity (Nucleic Acid [15]) | Activity (Nucleic Acid [16]) |
| --- | --- | --- | --- | --- | --- | --- | --- | --- | --- | --- | --- | --- | --- | --- | --- | --- |
| C[n+]1ccc(-c2c3nc(c(-c4cc[n+](C)cc4)c4ccc([nH]4)c(-c4cc[n+](C)cc4)c4ccc([nH]4)c(-c4cc[n+](C)cc4)c4nc2C=C4)C=C3)cc1 |  | 4.2 | 7.5 | 9.6 | 11.2 | 10 | 3.09 | 1.01 ×10⁸ /M | 4.65 ×10⁷ /M | 3.62 ×10⁶ /M | 9 | 28 | 13 |  |  |  |
